Where two headings read alike, the source gives them in different places. Marks after values point to notes of the source that are not given here. One block for each molecule: values may come before it.
Columns and labels:
[1] = tested on: methicillin-resistant Staphylococcus aureus MRSA-2 (clinical isolate); assay: MIC broth microdilution, MRSA-2; format: cell-based; conditions: for MIC: read-out: MIC MRSA-2
Method in brief: (§1)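 Each strain, ~10^5 cells from log-phase culture, was grown 16–18 h at 37 °C in Luria Broth with two-fold serial compound dilutions spanning 0.10–100 μM (DMSO ≤1% v/v). The MIC, the lowest growth-preventing concentration, was confirmed by OD600 following CLSI microdilution. At least three independent repeats.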

[2] = tested on: Acinetobacter baumannii (ATCC 1794); assay: MIC broth microdilution, A. baumannii 1794; format: cell-based; conditions: for MIC A. baumannii 1794: in µM
Method in brief: as §1

MRSA BAA-44 = assay: MIC broth microdilution, MRSA BAA-44; format: cell-based, Staphylococcus aureus
Method: (§2) The minimum inhibitory concentration (MIC) for each tested compound was determined by the broth microdilution method as recommended by the Clinical and Laboratory Standards Institute (CLSI). In a 96-well plate, eleven two-fold serial dilutions of each compound were made in a final volume of 100 μL Luria Broth. Each well was inoculated with ˜10^5 bacterial cells at the initial time of incubation, prepared from a fresh log phase culture (OD600 of 0.5 to 1.0 depending on bacterial strain). […] (MIC values were supported by spectrophotometric readings at OD600). DMSO served as our vehicle and negative control in each microdilution MIC assay. DMSO was serially diluted with a top concentration of 1% v/v.
(§3) Each well was inoculated with ˜10^5 bacterial cells at the initial time of incubation, prepared from a fresh log phase culture (OD600 of 0.5 to 1.0 depending on bacterial strain). […] The concentration range tested for each compound during this study was 0.10 to 100 μM. DMSO served as our vehicle and negative control in each microdilution MIC assay. DMSO was serially diluted with a top concentration of 1% v/v. All MIC values were obtained from a minimum of three independent experiments.

[3] = tested on: methicillin-sensitive Staphylococcus aureus ATCC 29213; assay: MIC broth microdilution, S. aureus 29213; format: cell-based
Method in brief: (§4)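 Compounds ranged from 0.10 to 100 μM in two-fold steps in Luria Broth, with ~10^5 log-phase bacteria per well. The vehicle control was DMSO, serially diluted from 1% v/v.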

[4] = tested on: SA-138 (clinical isolate); assay: MIC broth microdilution, SA-138; format: cell-based, Staphylococcus aureus
Method: as §2, §3

MRSA BAA-1707 = assay: MIC broth microdilution, MRSA BAA-1707; format: cell-based, Staphylococcus aureus; conditions: for MIC MRSA 1707: Table 4
Method in brief: as §4

[5] = tested on: human red blood cells (hRBC); assay: Hemolysis of red blood cells; format: cell-based
Method in brief: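 hRBCs (2% suspension) exposed to compounds at 0.2–200 μM (ten-point dose-response) for 1 h at 37 °C; after centrifugation, haemoglobin release read as supernatant OD at 405 nm. DMSO set as 0% and Triton X as 100% haemolysis; HC50 from dose-response curves, three independent experiments.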

[6] = tested on: SA-147 (clinical isolate); assay: MIC broth microdilution, SA-147; format: cell-based, Staphylococcus aureus
Method: as §2, §3

[7] = tested on: SA-156 (clinical isolate); assay: MIC broth microdilution, SA-156; format: cell-based, Staphylococcus aureus
Method: as §2, §3

[8] = tested on: MRSA-1 (clinical isolate); assay: MIC broth microdilution, MRSA-1; format: cell-based, Staphylococcus aureus
Method: as §2, §3

[9] = tested on: SA-129 (clinical isolate); assay: MIC broth microdilution, SA-129; format: cell-based, Staphylococcus aureus
Method: as §2, §3

[10] = tested on: methicillin-resistant Staphylococcus epidermidis (MRSE strain ATCC 35984); assay: MIC broth microdilution, MRSE 35984; format: cell-based
Method in brief: as §1

[11] = tested on: vancomycin-resistant Enterococcus faecium (VRE strain ATCC 700221); assay: MIC broth microdilution, VRE 700221; format: cell-based
Method in brief: as §1

[12] = tested on: Pseudomonas aeruginosa (PAO1); assay: MIC broth microdilution, PAO1; format: cell-based
Method in brief: as §1

SMILES: CCCCCCCCCCCCCCCCn1cc[n+](C)c1C.[I-] [Compound 8]
- MRSA-2 MIC [1]: 1.17^a μM
- MIC A. bau. 1794 [2]: 12.5 µM
- MIC A. baumannii 1794 [2]: 12.5
- MIC (MRSA BAA-44; Table 1B): 1.56 µM
- MIC (MRSA BAA-44; Table 3): 1.56 µM
- MIC ([3]; Table 1B): 1.56 µM
- MIC ([3]; Table 3): 1.56 µM
- MIC SA-138 ([4]; Table 1B): 2.35^a μM
- MIC SA-138 ([4]; Table 3): 2.35^a μM
- MIC (MRSA BAA-1707; Table 1B, read-out: MIC MRSA BAA-1707): 0.39 µM
- MIC (MRSA BAA-1707; Table 2A, read-out: MRSA BAA-1707 MIC): 0.39 µM
- MIC (MRSA BAA-1707; Table 3, read-out: MIC MRSA BAA-1707): 0.39 µM
- MIC MRSA 1707 (MRSA BAA-1707): 0.39 µM
- HC50 ([5]; Table 1A): 13 µM
- RBC HC50 ([5]; Table 4, concentration required to lyse 50% of red blood cells): 13.0 µM
- MIC SA-147 ([6]; Table 1B): 1.17^a μM
- MIC SA-147 ([6]; Table 3): 1.17^a μM
- MIC ([7]; Table 1B): 1.56 µM
- MIC ([7]; Table 3): 1.56 µM
- MIC ([8]; Table 1B): 1.56 µM
- MIC ([8]; Table 3): 1.56 µM
- MIC ([9]; Table 1B): 1.56 µM
- MIC ([9]; Table 3): 1.56 µM
- MIC MRSE 35984 [10]: 1.17a micromolar
- MIC S. epidermidis MRSE 35984 [10]: 1.17^a
- MRSE 35984 MIC [10]: 1.17^a μM
- MIC E. faecium VRE 700221 [11]: 2.35^a
- MIC VRE 700221 [11]: 2.35a micromolar
- VRE MIC [11]: 2.35^a μM

- MIC MRSA-2 ([1]; Table 4): 1.56 µM
- MIC A. bau. 1794 ([2]; Table 4): 6.25 µM
- MIC PAO1 ([12]; Table 4): >100 µM
- MIC MRSA 1707 (MRSA BAA-1707): 1.56 µM
- MIC MRSE 35984 ([10]; Table 4): 1.56 µM
- MIC VRE 700221 ([11]; Table 4): 3.13 µM
SMILES: CCCCCCCCCCCCCCCC[N+](C)(C)Cc1ccccc1.[Cl-] [BAC-16, reference compound]
- RBC HC50 [5]: 21.8 µM

- MIC ([1]; Table 1): 3.13 µM
- MIC MRSA-2 ([1]; Table 1A): 3.13 µM
- MIC MRSA-2 ([1]; Table 1B): 2.35^a μM
- MRSA-2 MIC ([1]; Table 2A): 2.35^a μM
- MIC ([1]; Table 3): 3.13 µM
- MIC MRSA-2 ([1]; Table 4): 3.13 µM
- MIC against multidrug-resistant A. baumannii [2]: 6.25 µM
- MIC ([2]; Table 1, read-out: MIC A. baumannii 1794): 6.25 µM
- MIC A. baumannii 1794 ([2]; Table 1A): 6.25
- MIC A. bau. 1794 ([2]; Table 4): 6.25 µM
- MIC MRSA BAA-44 (MRSA BAA-44; Table 1B): 2.35^a μM
- MIC MRSA BAA-44 (MRSA BAA-44; Table 3): 2.35^a μM
- MIC S. aureus 29213 ([3]; Table 1B): 4.69^a μM
- MIC S. aureus 29213 ([3]; Table 3): 4.69^a μM
- MIC SA-138 ([4]; Table 1B): 2.35^a μM
- MIC SA-138 ([4]; Table 3): 2.35^a μM
- MIC against P. aeruginosa [12]: 9.38 µM
- MIC PAO1 ([12]; Table 1): 9.38^a μM
- MIC PAO1 ([12]; Table 1A): 9.38^a
- MIC PAO1 ([12]; Table 4): 9.38a micromolar
- MIC ([6]; Table 1B): 3.13 µM
- MIC ([6]; Table 3): 3.13 µM
- MIC SA-156 ([7]; Table 1B): 2.35^a μM
- MIC SA-156 ([7]; Table 3): 2.35^a μM
- MIC ([8]; Table 1B): 3.13 µM
- MIC MRSA-1 ([8]; Table 3): 4.69^a μM
- MIC SA-129 ([9]; Table 1B): 2.35^a μM
- MIC SA-129 ([9]; Table 3): 2.35^a μM
- MIC MRSE 35984 ([10]; Table 1): 2.35^a μM
- MIC S. epidermidis MRSE 35984 ([10]; Table 1A): 2.35^a
- MRSE 35984 MIC ([10]; Table 2): 2.35^a μM
- MRSE 35984 MIC ([10]; Table 2A): 2.35^a μM
- MIC MRSE 35984 ([10]; Table 4): 2.35a micromolar
- MIC VRE 700221 ([11]; Table 1): 2.35^a μM
- MIC E. faecium VRE 700221 ([11]; Table 1A): 2.35^a
- VRE 700221 MIC ([11]; Table 2): 2.35^a μM
- MIC VRE 700221 ([11]; Table 4): 2.35a micromolar
SMILES: CCCCCCCCCCCC[N+](C)(C)CC[N+](C)(C)CC[N+](C)(C)CCCCCCCCCCCC [QAC-10, reference compound]
- HC50 [5]: 7.92 µM
- hemolytic activity [5]: potent hemolytic activities

From patent publication US11419335B2, “N-arylated analogues and uses thereof” (University of Florida Research Foundation, Incorporated, priority 2016, dated 2022)
